Measurements published in US20210244728A1, “Method of treating peripheral neuropathy” (Chemedest Ltd., priority 2012, published 2021).

What was measured:
sciatic-ligated rats = test: Von Frey test in Bennett model (chronic constrictive injury of the sciatic nerve) of neuropathic pain; format: in vivo, Male Sprague Dawley rats
Description: The study was designed to evaluate the analgesic efficacy of compound XV (CHM-65) in the Bennett model of neuropathic pain.
Male Sprague Dawley rats (100-125 g) from Harlan (Indianapolis, Ind.) were used in the study. Upon receipt, rats were assigned unique identification numbers and were group housed with 3 rats per cage in polycarbonate cages with micro-isolator filter tops. All rats were examined, handled, and weighed prior to initiation of the study to assure adequate health and suitability. During the course of the study, 12/12 light/dark cycles were maintained, with lights on at 7:00 am EST. The room temperature was maintained between 20 and 23° C. with a relative humidity maintained around 50%. Chow and water were provided ad libitum for the duration of the study. […]
This surgery was performed according to Bennett and Xie (1988). […] Each rat was monitored until awake and moving freely around the recovery chamber. […]
Withdrawal from a mechanical stimulus was measured by applying von Frey (VF) filaments of ascending bending force to the plantar surface of the hind paws (ipsilateral and contralateral). […]
Data were analyzed by one-way analysis of variance (ANOVA) followed by Fisher PLSD post-hoc comparisons. […]

[1] = test system: spinal nerve-ligated rats; test: Von Frey test in Chung model (spinal nerve ligation) of neuropathic pain; format: in vivo; conditions: for Signs of sedation or toxicity: during pretreatment or testing
Description: The study was designed to evaluate the analgesic efficacy of test compounds in the rat Chung model of neuropathic pain.
Male Sprague Dawley rats (100-125 g) from Harlan (Indianapolis, Ind.) were used in the study. Upon receipt, rats were assigned unique identification numbers and were group housed with 3 rats per cage in polycarbonate cages with micro-isolator filter tops. All rats were examined, handled, and weighed prior to initiation of the study to assure adequate health and suitability. During the course of the study, 12/12 light/dark cycles were maintained, with lights on at 7:00 am EST. The room temperature was maintained between 20 and 23° C. with a relative humidity maintained around 50%. Chow and water were provided ad libitum for the duration of the study.
Reference compound: Gabapentin (100 mg/kg; TRC, Lot No. 1-SWM-154-1) was dissolved in saline and administered acutely on test day (day 8 or 12) 1 hour prior to testing, at a dose volume of 1 ml/kg, p.o.
Test compounds: CHM-65 (5, 15 and 25 mg/kg, Q.D., Lot n/a) was dissolved in sterile injectable saline and administered subcutaneously on days 1, 3, 5 and 8 with the first administration (day 1) occurring 1 hour post-op. On day 8, compound was administered 1 hour prior to testing. The dose volume was 3 ml/kg.
CHM-36 (20 mg/kg, Q.D., Lot n/a) was dissolved in sterile injectable saline and administered subcutaneously on days 1, 3, 5 and 8 with the first administration (day 1) occurring 1 hour post-op. On day 8, compound was administered 1 hour prior to testing. The dose volume was 5 ml/kg.
Artemin (CHMB-1) (0.5 mg/kg, Q.D., Lot n/a) was administered subcutaneously on days 1, 3, 5, 8, 10 and 12 with the first administration (day 1) occurring 1 hour post-op. On day 12, compound was administered 1 hour prior to testing. The dose volume was 0.5 ml/kg.
Under general anesthesia with continuous inhalation of isoflurane, surgery was performed with aseptic procedures in surgery unit. Sterile ophthalmic ointment was used to lubricate the eyes. Animals were observed continuously for the level of anesthesia, testing for the animal's reflex response to tail or paw pinch and closely monitoring the animal's breathing. A heating pad was used to maintain body temperature at 37° C. while the animals recovered from anesthesia. The skin at the area of the lower lumber and sacral level of the rat was shaved and disinfected with betadine and alcohol. A left longitudinal incision at the level next to the vertebral column was made and the left paraspinal muscles were separated. The transverse process of L6 was removed and nearby connective tissue cleaned to expose L5 and L6 spinal nerves. After the nerves were isolated and clearly visualized, 4-0 silk threads were used to ligate the left L5. The muscles were sutured with 4-0 silk threads and the wound closed by staples. All rats received an analgesic (buprenorphine, 0.05 mg/kg, s.c.) immediately before and 6 hours after surgery. Each rat was monitored until awake and moving freely around the recovery chamber. Animals were then single-housed for the duration of the study. Rats began their chronic-treatment regimen (all test groups except gabapentin) 1 hour post-op on surgery day.
Withdrawal from a mechanical stimulus was measured by applying von Frey (VF) filaments of ascending bending force to the plantar surface of the hind paws (ipsilateral and contralateral). A positive response was defined as withdrawal from the von Frey filament. […]

[2] = test system: peripheral neuron populations (dorsal root, trigeminal, nodose, superior cervical ganglia) and cultured fetal ventral mesencephalic DA neurons; conditions: cited from earlier work
animals = conditions: systemic administration in animals; cited from earlier work
[3] = test system: rats with SNL (spinal nerve ligation); conditions: repeated injection; cited from earlier work

Compound	Signs of sedation or toxicity (sciatic-ligated rats; during pretreatment or testing, Bennett model study)	ipsilateral paw withdrawal threshold compared to vehicle (sciatic-ligated rats; gabapentin 100 mg/kg p.o., acute on day 12, 1 hour prior to testing, FIG. 3)	Signs of sedation or toxicity ([1]; CHM-36 study)	Signs of sedation or toxicity ([1]; artemin study)	ipsilateral paw withdrawal threshold compared to vehicle ([1]; gabapentin 100 mg/kg p.o., acute on test day, 1 hour prior to testing, CHM-36 study, FIG. 5)	ipsilateral paw withdrawal threshold compared to vehicle ([1]; gabapentin 100 mg/kg p.o., acute on test day, 1 hour prior to testing, artemin study, FIG. 7)	survival of peripheral neuron populations and cultured fetal ventral mesencephalic DA neurons [2]	ipsilateral paw withdrawal threshold compared to vehicle ([1]; 0.5 mg/kg s.c. on days 1, 3, 5, 8, 10 and 12, tested day 12, 1 hour after administration, FIG. 7)	restoration of nociceptive and sensorimotor functions (animals)	behavioral responses to light touch and noxious thermal stimuli [3]	behavioral signs of toxicity [3]
NCC1(CC(=O)O)CCCCC1 [gabapentin, Gabapentin]	not observed	significantly increased	not observed	not observed	significantly increased	significantly increased					
CHMB-1: GDNF family ligand artemin (ARTN), neurotrophic factor signalling through GFR α 3/RET							promote the survival	significantly increased	essentially complete and persistent restoration	dose-dependent normalization	without producing behavioral signs of toxicity
